Columns and labels:
human TRPML1 = human TRPML1 (Homo sapiens, UniProt Q9GZU1); experiment: Fluorescent TRPML1 assay (Fluo4-AM calcium fluorescence, HEK-293 Trex cells); assay type: cell-based
Protocol: (§1) HEK-293 Trex cells were stably transfected with a construct consisting of the human coding sequence for TRPML1 cloned into the tet-inducible plasmid pCDNA5 T/O. Mutations were introduced into the TRPML1 sequence to facilitate expression on the cell surface (Silvia Vergarajauregui, Rosa Puertollano Traffic. 2006 March; 7 (3): 337-353). Briefly, the cells are cultured in 150 mm round tissue culture dishes containing 20 mL of media. The day before the assay the cells are rinsed with DPBS —Ca—Mg and then treated briefly with Trypsin-EDTA. The Trypsin-EDTA is diluted with growth media, and cells are counted. 38×10^6 cells are re-plated into 150 mm round tissue culture dishes in media containing 0.5 ug/mL doxycycline to induce expression of hTRPML1.
(§2) The day of the experiment cells are lifted from the plates as above and collected by centrifugation. The cells are then suspended in dye loading buffer consisting of Ringer's solution supplemented with 0.1% Pluronic Acid and 1 micromolar Fluo4-AM dye. Cells are loaded for ˜60 minutes in the dark with occasional mixing. The cells are collected by centrifugation, the loading media aspirated, and the cells resuspended in 25 mL Ringer's solution and incubated ˜60 minutes in the dark. The cells are again collected by centrifugation, rinsed in Ringer's Solution and resuspended to 0.2×10^6 cells/mL in modified Ringer's solution containing 10 mM calcium.
(§3) Compounds are dissolved to a concentration of 10 millimolar with DMSO. Compound plates are created by dispensing compounds into 384 well black wall clear bottom plates (Greiner 781091). Positive and negative controls are included on each plate. Typically, different amounts of each compound are tested ranging from 100 nanoMoles (20 micromolar final concentration) decreasing in half-log steps to 31 picoMoles (6 nanomolar final concentration). Each concentration is typically tested in triplicate.
(§4) 50 microliters of dye-loaded cells are dispensed into each well of the compound assay plate created above. The fluorescence in each well is then determined with an excitation wavelength of 480 nm and an emission wavelength of 540 nm using either a Molecular Devices SpectraMax multimode plate reader or a Hamamatsu FDSS/uCell plate imager.
(§5) The resulting fluorescence for each well is exported as an ascii file and loaded into our LIMS for analysis. The percent activity of each compound at each concentration is determined by comparison to the positive and negative control wells included in each plate.
(§6) EC50 values were calculated using a non-linear regression of Prism. In the table, “A” indicates an EC50 of less than 100 nM, “B” indicates an EC50 range from 100 nM to 500 nM; “C” indicates an EC50 range from 500 nM to 2 μM; and “D” indicates an EC50 greater than 2 μM.

TRPML3 = target: T1, TRPML3 (Homo sapiens, UniProt Q8TDD5); experiment: Fluorescent TRPML3 assay (as for TRPML1); assay type: cell-based
T1 construct: expressed in transfected cells
T1 sequence (Q8TDD5 1-553): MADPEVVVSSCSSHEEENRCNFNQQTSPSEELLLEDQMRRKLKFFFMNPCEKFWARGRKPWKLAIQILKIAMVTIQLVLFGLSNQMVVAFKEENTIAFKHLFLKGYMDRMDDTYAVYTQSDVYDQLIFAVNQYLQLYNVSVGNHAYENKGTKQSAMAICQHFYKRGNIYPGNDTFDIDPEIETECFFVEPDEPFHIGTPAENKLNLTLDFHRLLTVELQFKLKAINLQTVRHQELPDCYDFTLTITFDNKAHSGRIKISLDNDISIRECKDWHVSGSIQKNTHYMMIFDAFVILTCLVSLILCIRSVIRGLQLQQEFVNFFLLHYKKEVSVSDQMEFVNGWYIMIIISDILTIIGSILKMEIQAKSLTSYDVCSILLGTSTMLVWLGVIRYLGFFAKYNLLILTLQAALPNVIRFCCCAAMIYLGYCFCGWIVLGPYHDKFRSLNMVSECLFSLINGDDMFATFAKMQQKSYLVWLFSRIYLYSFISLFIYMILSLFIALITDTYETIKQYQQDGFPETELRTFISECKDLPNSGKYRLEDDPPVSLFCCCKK
Protocol: as §1, §2, §3, §4, §5
Assays for TRPML2 and TRPML3 were performed as above for TRPML1, by substituting the appropriate TRPML2 or TRPML3 subtype for the TRPML1.
as §6

human TRPML1, sequence (Q9GZU1 whole entry L15A/L16A/L577A/L578A, form open): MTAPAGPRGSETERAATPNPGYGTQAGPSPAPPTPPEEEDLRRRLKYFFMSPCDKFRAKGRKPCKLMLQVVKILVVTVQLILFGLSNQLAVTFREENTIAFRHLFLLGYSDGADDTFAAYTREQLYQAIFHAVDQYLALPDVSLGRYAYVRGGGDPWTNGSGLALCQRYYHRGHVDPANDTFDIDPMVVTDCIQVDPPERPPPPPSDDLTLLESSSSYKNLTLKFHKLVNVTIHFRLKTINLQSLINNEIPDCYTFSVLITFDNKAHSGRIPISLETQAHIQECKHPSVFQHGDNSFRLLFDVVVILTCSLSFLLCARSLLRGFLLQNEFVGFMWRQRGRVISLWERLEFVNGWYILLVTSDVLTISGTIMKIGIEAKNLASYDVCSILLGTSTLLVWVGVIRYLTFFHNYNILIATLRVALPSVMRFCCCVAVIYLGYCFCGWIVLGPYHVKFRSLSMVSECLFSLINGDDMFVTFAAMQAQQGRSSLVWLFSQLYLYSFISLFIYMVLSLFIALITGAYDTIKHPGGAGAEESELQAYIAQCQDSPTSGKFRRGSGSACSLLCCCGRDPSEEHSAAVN

SMILES | EC50 (human TRPML1; Table 3, compounds 201-283) [nM] | EC50 (TRPML3; Table 3, compounds 201-283) [nM] | EC50 (human TRPML1; Table 3, compounds 101-177) [nM] | EC50 (TRPML3; Table 3, compounds 101-177) [nM]
CC(C)C(=O)N1C[C@H](C)N(c2ncnc3c2c(-c2ccccc2F)cn3-c2cc(F)ccn2)C[C@H]1C [Compound 167, 1-((2R,5S)-4-(5-(2-fluorophenyl)-7-(4-fluoropyridin-2-yl)-7H-pyrrolo[2,3-d]pyrimidin-4-yl)-2,5-dimethylpiperazin-1-yl)-2-methylpropan-1-one] |  |  | < 100 | < 100
CC(C)C(=O)N1C[C@H](C)N(c2ncnc3c2c(N2CCC2)cn3-c2cc(F)cc(F)c2)C[C@H]1C [Compound 218, 1-((2R,5S)-4-(5-(azetidin-1-yl)-7-(3,5-difluorophenyl)-7H-pyrrolo[2,3-d]pyrimidin-4-yl)-2,5-dimethylpiperazin-1-yl)-2-methylpropan-1-one] | 100 to 500 | 500 to 2000 |  | 
Cc1nccnc1-c1cn(-c2cccc(Cl)c2)c2ncnc(N3C[C@@H](C)N(C(=O)C(C)C)C[C@@H]3C)c12 [Compound 175, 1-((2R,5S)-4-(7-(3-chlorophenyl)-5-(3-methylpyrazin-2-yl)-7H-pyrrolo[2,3-d]pyrimidin-4-yl)-2,5-dimethylpiperazin-1-yl)-2-methylpropan-1-one] |  |  | 500 to 2000 | > 2000
C[C@@H]1CN(c2ncnc3c2c(C(F)(F)F)cn3-c2cncc(C#N)c2)[C@@H](C)CN1C(=O)C(C)(C)C [Compound 224, 5-(4-((2S,5R)-2,5-dimethyl-4-pivaloylpiperazin-1-yl)-5-(trifluoromethyl)-7H-pyrrolo[2,3-d]pyrimidin-7-yl)nicotinonitrile] | < 100 | 500 to 2000 |  | 
CC(C)C(=O)N1CCN(c2ncnc3c(-c4cc(C#N)ccn4)cn(-c4ccccn4)c23)[C@@H](C)C1 [Compound 211, (S)-2-(4-(4-isobutyryl-2-methylpiperazin-1-yl)-5-(pyridin-2-yl)-5H-pyrrolo[3,2-d]pyrimidin-7-yl)isonicotinonitrile] | > 2000 | > 2000 |  | 
COC(C)(C)C(=O)N1CCN(c2ncnc3c2c(C(F)(F)F)cn3-c2cc(C#N)ccn2)[C@@H](C)C1 [Compound 210, (S)-2-(4-(4-(2-methoxy-2-methylpropanoyl)-2-methylpiperazin-1-yl)-5-(trifluoromethyl)-7H-pyrrolo[2,3-d]pyrimidin-7-yl)isonicotinonitrile] | 100 to 500 | 500 to 2000 |  | 
CCCC(=O)N1CCN(c2ncnc3c2c(N2CCC2)cn3-c2cc(C#N)ccn2)C[C@H]1C [Compound 274, (R)-2-(5-(azetidin-1-yl)-4-(4-butyryl-3-methylpiperazin-1-yl)-7H-pyrrolo[2,3-d]pyrimidin-7-yl)isonicotinonitrile] | < 100 | < 100 |  | 
Cc1nccnc1-c1cn(-c2cccc(Cl)c2)c2ncnc(N3C[C@@H](C)N(C(=O)CC(C)C)C[C@@H]3C)c12 [Compound 176, 1-((2R,5S)-4-(7-(3-chlorophenyl)-5-(3-methylpyrazin-2-yl)-7H-pyrrolo[2,3-d]pyrimidin-4-yl)-2,5-dimethylpiperazin-1-yl)-3-methylbutan-1-one] |  |  | 500 to 2000 | > 2000
C[C@H]1CN(C(=O)C2(C)CC2)CCN1c1ncnc2c1c(-c1ccccn1)cn2-c1cc(C#N)ccn1 [Compound 127, (S)-2-(4-(2-methyl-4-(1-methylcyclopropane-1-carbonyl)piperazin-1-yl)-5-(pyridin-2-yl)-7H-pyrrolo[2,3-d]pyrimidin-7-yl)isonicotinonitrile] |  |  | 500 to 2000 | > 2000
C[C@H]1CN(C(=O)C(C)(C)O)CCN1c1ncnc2c1c(N1CCC1)cn2-c1cc(C#N)ccn1 [Compound 162, (S)-2-(5-(azetidin-1-yl)-4-(4-(2-hydroxy-2-methylpropanoyl)-2-methylpiperazin-1-yl)-7H-pyrrolo[2,3-d]pyrimidin-7-yl)isonicotinonitrile] |  |  | 100 to 500 | 500 to 2000
CC(C)C(=O)N1CCN(c2ncnc3c2c(-c2ccccc2F)cn3-c2ncc(C#N)s2)[C@@H](C)C1 [Compound 142, (S)-2-(5-(2-fluorophenyl)-4-(4-isobutyryl-2-methylpiperazin-1-yl)-7H-pyrrolo[2,3-d]pyrimidin-7-yl) thiazole-5-carbonitrile] |  |  | 100 to 500 | 100 to 500
CC(C)(O)C(=O)N1CCN(c2ncnc3c2c(-c2ccccc2F)cn3-c2cc(C#N)ccn2)C2(CC2)C1 [Compound 174, 2-(5-(2-fluorophenyl)-4-(7-(2-hydroxy-2-methylpropanoyl)-4,7-diazaspiro[2.5]octan-4-yl)-7H-pyrrolo[2,3-d]pyrimidin-7-yl)isonicotinonitrile] |  |  | < 100 | < 100
CC(C)C(=O)N1C[C@H](C)N(c2ncnc3c2c(-c2ccccc2F)cn3-c2cc(Cl)ccn2)C[C@H]1C [Compound 168, 1-((2R,5S)-4-(7-(4-chloropyridin-2-yl)-5-(2-fluorophenyl)-7H-pyrrolo[2,3-d]pyrimidin-4-yl)-2,5-dimethylpiperazin-1-yl)-2-methylpropan-1-one] |  |  | < 100 | < 100

Other lines, results leading:

EC50 (human TRPML1; Table 3, compounds 201-283) [nM] | EC50 (TRPML3; Table 3, compounds 201-283) [nM] | EC50 (human TRPML1; Table 3, compounds 101-177) [nM] | EC50 (TRPML3; Table 3, compounds 101-177) [nM] | SMILES
< 100 | < 100 |  |  | C[C@@H]1CN(c2ncnc3c2c(C2CCC2)cn3-c2cc(C#N)ccn2)[C@@H](C)CN1C(=O)C1(F)CC1 [Compound 236, 2-(5-cyclobutyl-4-((2S,5R)-4-(1-fluorocyclopropane-1-carbonyl)-2,5-dimethylpiperazin-1-yl)-7H-pyrrolo[2,3-d]pyrimidin-7-yl)isonicotinonitrile]
 |  | < 100 | > 2000 | CC(C)CC(=O)N1CCN(c2ncnc3c2c(C2CC2)cn3-c2cc(C#N)ccn2)[C@@H](C)C1 [Compound 137, (S)-2-(5-cyclopropyl-4-(2-methyl-4-(3-methylbutanoyl)piperazin-1-yl)-7H-pyrrolo[2,3-d]pyrimidin-7-yl)isonicotinonitrile]
 |  | 100 to 500 | > 2000 | C[C@H]1CN(C(=O)C(C)(C)O)CCN1c1ncnc2c1c(C1CC1)cn2-c1cc(C#N)ccn1 [Compound 160, (S)-2-(5-cyclopropyl-4-(4-(2-hydroxy-2-methylpropanoyl)-2-methylpiperazin-1-yl)-7H-pyrrolo[2,3-d]pyrimidin-7-yl)isonicotinonitrile]
 |  | < 100 | 100 to 500 | C[C@@H]1CN(c2ncnc3c2c(C2CC2)cn3-c2cc(C#N)ccn2)CCN1C(=O)C1(F)CC1 [Compound 129, (R)-2-(5-cyclopropyl-4-(4-(1-fluorocyclopropane-1-carbonyl)-3-methylpiperazin-1-yl)-7H-pyrrolo[2,3-d]pyrimidin-7-yl)isonicotinonitrile]
 |  | 100 to 500 | 100 to 500 | C[C@H]1CN(C(=O)CC(C)(C)C)CCN1c1ncnc2c1c(C1CC1)cn2-c1cc(C#N)ccn1 [Compound 136, (S)-2-(5-cyclopropyl-4-(4-(3,3-dimethylbutanoyl)-2-methylpiperazin-1-yl)-7H-pyrrolo[2,3-d]pyrimidin-7-yl)isonicotinonitrile]
< 100 | < 100 |  |  | COC(C)(C)C(=O)N1CCN(c2ncnc3c2c(C2CC2)cn3-c2cc(C#N)ccn2)[C@@H](C)C1 [Compound 241, (S)-2-(5-cyclopropyl-4-(4-(2-methoxy-2-methylpropanoyl)-2-methylpiperazin-1-yl)-7H-pyrrolo[2,3-d]pyrimidin-7-yl)isonicotinonitrile]
 |  | < 100 | < 100 | C[C@H]1CN(C(=O)C(C)(C)F)CCN1c1ncnc2c1c(C1CC1)cn2-c1cc(C#N)ccn1 [Compound 114, (S)-2-(5-cyclopropyl-4-(4-(2-fluoro-2-methylpropanoyl)-2-methylpiperazin-1-yl)-7H-pyrrolo[2,3-d]pyrimidin-7-yl)isonicotinonitrile]
